From publication PMC5564600 (Oncotarget, 2017)

Biological target: mTOR (Homo sapiens, UniProt P42345)
Assay: SelectScreen Z'LYTE kinase assay (Invitrogen), mTOR
Assay type: biochemical
Conditions: determined by Invitrogen, mean ± SEM, n=2

FC(F)c1nc2ccccc2n1-c1nc(N2CCOCC2)nc(N2CCOCC2)n1 [ZSTK474, 2-(difluoromethyl)-1-[4,6-di(4-morpholinyl)-1,3,5-triazin-2-yl]-1H-benzimidazole]
IC50: 102 ± 19 nM
